A short description of data set [1]: PAMPA test (skin permeability model). To be noted: for permeation parameter CA(t)/CD(0) / retention factor R (membrane retention) / permeability coefficient log Pe: 70% silicone oil-30% IPM membrane, 7 h incubation, 100 μM in 5% DMSO phosphate buffer pH 7, triplicate mean; for Papp at 7 h, 100 μM: PAMPA, pH 7. How it is done: The study was performed in triplicate and the results are presented as mean values. After the PAMPA tests was performed, a HPLC method was used to measure the concentrations of the investigated corticosteroids: the initial concentration–CD(0) in the starting solution, the residual concentration–CD(t) in the donor compartment (7 h after incubation) and the transferred concentration–CA(t) in the acceptor compartment (7 h after incubation). The assay was performed using the previously described HPLC method with mobile phase modification for determination of standard corticosteroids. The mobile phase modification was introduced to achieve complete separation standard corticosteroids peak from DMSO peak, which was used as cosolvent. DMSO was used as cosolvent with the aim of increasing the corticosteroid C-21 esters’ solubility. DMSO is one of the earliest and most widely studied penetration enhancers for transdermal drug delivery systems.
On the basis of the initial (100 μM) and calculated residual and transferred concentrations according to peak area comparison at zero time t0, the retention factors–R and permeability coefficients–logPe of investigated corticosteroids were obtained.
Phosphate buffer (pH = 7) was prepared by dissolving NaH2PO4·H2O (1.167 g) and Na2HPO4·7H2O (3.093 g) in water (1000 mL) with the fixed total concentration of 20 mM. The 5% DMSO solution were prepared dissolving DMSO in phosphate buffer. The corticosteroid solutions were prepared dissolving the investigated corticosteroid standards as well as new synthesized corticosteroid C-21 esters in 5% DMSO solution. […] An aliquot of previously prepared mixture (3.5 mL, 7 mL silicone oil and 3 mL IPM) was transferred into a 10 mL volumetric flask, dissolved and fill up to mark with n-hexane.
Permeation experiments were carried out in hydrophobic PVDF 96-well filter plates (Millipore, Molsheim, France). […] Next, in each well of acceptor plate, 5% DMSO solution (400 μL) was transferred with an automatic pipette and covered by the donor plate, creating a PAMPA sandwich. In each well of the donor plate solutions of the tested corticosteroid in 5% DMSO solution (100 μM, 300 μL) was transferred by the use of an automatic pipette. Each substance was measured in triplicate at iso-pH conditions (the same pH value in donor and receptor compartment). The donor plate was covered to prevent evaporation and the whole system set up to interact with the vibratory mixer. After 7 h, PAMPA sandwich was removed from the mixer and vibration, and using the HPLC method the concentration of the investigated substances in the donor and receptor compartments were determined. The HPLC method used was as previously described but with some necessary modifications. A mobile phase of methanol–water (75:25 v/v) was used for analysis of corticosteroid C-21 esters, while the mobile phase methanol–water (50:50 v/v) was used for the analysis of unesterified corticosteroids to increase their retention time and prevent overlapping with the DMSO peak. Other HPLC parameters were as previously described. The concentrations of each tested corticosteroid in the appropriate time interval in the donor and acceptor compartments were calculated using the method of comparing the peak area of the initial concentration at zero time t0.
The values of permeability coefficients–logPe and retention factors–R of examined corticosteroids were calculated using equations (2) and (3). The retention factor, R can be defined as the mole fraction retained in the membrane and in the microplates (i.e., filters and plate materials): [drawing 1] (2) where CA(t)/CD(0) represents the amount of compound that reached the acceptor compartment after incubation time t (for VA = VD): […]
For orientation: The PAMPA barrier holds no transporters, so it reflects passive diffusion.

The nature of data set [2]: approximate logKp (permeability coefficient through human skin) calculated from logPe by equation (1). The settings on record: logKp = 1.34 logPe + 0.28, from PAMPA logPe. From the text:
Ottaviani and coworkers predicted skin permeation of numerous compounds applying a new membrane (70% silicone oil and 30% IPM) in the PAMPA test and presented permeate classifications on the basis of available literature permeability coefficients through human skin, logKp.
The proposed equation for correlation between logKp and logPe for 31 investigated compounds was: […]

On the set-up of data set [3]: method as in PMID 16789751. To be noted: 70% silicone-30% IPM membrane, 7 h; cited from earlier work.
For data set [4], the system named is croton oil induced mice ear edema. The settings on record: 4 h after application, at ED50 of FA (28 μM); cited from earlier work.

The text below walks through data of publication PMC6268546, “A PAMPA Assay as Fast Predictive Model of Passive Human Skin Permeability of New Synthesized Corticosteroid C-21 Esters” (Molecules, 2012).

SMILES strings stand for the structures. Several values for one entry are separate records, joined by “and”; a condition that tells them apart may be missing. Identical values can stand only once.

`C[C@@H]1C[C@H]2[C@@H]3CCC4=CC(=O)C=C[C@]4(C)[C@@]3(F)[C@@H](O)C[C@]2(C)[C@@]1(O)C(=O)CO` [DEX, dexamethasone, reference compound]: in data set [1], the “permeation parameter CA(t)/CD(0)” value is on record as 1.3 ± 0.8% and the “retention factor R (membrane retention)” value was 4.2 ± 2.0%. In data set [2], the “logKp (approximate, calculated)” value is −7.75. Also, the logPe previously reported in data set [3] is listed as −5.75.
Regarding `CC1(C)O[C@@H]2C[C@H]3[C@@H]4C[C@H](F)C5=CC(=O)C=C[C@]5(C)[C@@]4(F)[C@@H](O)C[C@]3(C)[C@]2(C(=O)CO)O1` [FA, fluocinolone acetonide, reference compound], in data set [1], the “permeation parameter CA(t)/CD(0)” value is listed as 6.7 ± 1.2%; the “retention factor R (membrane retention)” value is less than 1%; the Papp at 7 h, 100 μM is 5.5 ×10⁻⁶ cm/s. Further, the “logKp (approximate, calculated)” value in data set [2] was −6.77. Besides, the “relative anti-inflammatory activity (reduction of mass edema) in comparison to FA (100%)” value in data set [4] was 100%.
For `CCOC(CC)C(=O)OCC(=O)C12OC(C)(C)OC1CC1C3CC(F)C4=CC(=O)C=CC4(C)C3(F)C(O)CC12C` (stereo not shown) [FA-21-EB, fluocinolone acetonide 21-(2′-ethoxybutyrate)], in data set [1], the “permeability coefficient log Pe” value is reported as −4.82 ± 0.10 cm/s, the “permeation parameter CA(t)/CD(0)” value was found to be 7.2 ± 0.9% and the “retention factor R (membrane retention)” value stood at 72.8 ± 2.6%. The “relative anti-inflammatory activity (reduction of mass edema) in comparison to FA (100%)” value in data set [4] is on record as 60%.
In the case of `CCOC(C)C(=O)OCC(=O)[C@@]12OC(C)(C)O[C@@H]1C[C@H]1[C@@H]3C[C@H](F)C4=CC(=O)C=C[C@]4(C)[C@@]3(F)[C@@H](O)C[C@@]12C` (stereo partly shown) [FA-21-EP, fluocinolone acetonide 21-(2′-ethoxypropionate)], in data set [1], the “permeability coefficient log Pe” value is recorded as −4.52 ± 0.19 cm/s, the “permeation parameter CA(t)/CD(0)” value was determined as 22.2 ± 1.6% and the “retention factor R (membrane retention)” value is on record as 45.8 ± 4.1%. Besides, the “relative anti-inflammatory activity (reduction of mass edema) in comparison to FA (100%)” value in data set [4] is “less than 10%”.
Turning to `COC(C)C(=O)OCC(=O)[C@@]12OC(C)(C)O[C@@H]1C[C@H]1[C@@H]3C[C@H](F)C4=CC(=O)C=C[C@]4(C)[C@@]3(F)[C@@H](O)C[C@@]12C` (stereo partly shown) [FA-21-MP, fluocinolone acetonide 21-(2′-methoxy-propionate)], in data set [1], the “permeability coefficient log Pe” value is −4.64 ± 0.17 cm/s, the “permeation parameter CA(t)/CD(0)” value is given as 23.1 ± 1.4% and the “retention factor R (membrane retention)” value was found to be 34.1 ± 3.5%. Moreover, the “relative anti-inflammatory activity (reduction of mass edema) in comparison to FA (100%)” value in data set [4] is given as 108.12%.
Take `CC(Oc1ccccc1)C(=O)OCC(=O)C12OC(C)(C)OC1CC1C3CC(F)C4=CC(=O)C=CC4(C)C3(F)C(O)CC12C` (stereo not shown) [FA-21-PhP, fluocinolone acetonide 21-(2′-phenoxypropionate)]: in data set [1], the “permeability coefficient log Pe” value was −5.68 ± 0.15 cm/s, the “permeation parameter CA(t)/CD(0)” value was determined as 1.3 ± 0.6% and the “retention factor R (membrane retention)” value is listed as 71.9 ± 2.8%. In data set [4], the “relative anti-inflammatory activity (reduction of mass edema) in comparison to FA (100%)” value is 65%.
With `CC(=O)OCC(=O)[C@@]1(O)CC[C@H]2[C@@H]3CCC4=CC(=O)CC[C@]4(C)[C@H]3[C@@H](O)C[C@@]21C` [H-21-Ac, hydrocortisone acetate, reference compound], in data set [1], the “permeation parameter CA(t)/CD(0)” value is 10% and 10.0 ± 1.7%; the “retention factor R (membrane retention)” value is listed as less than 1%; the Papp at 7 h, 100 μM is 8.51 ×10⁻⁶ cm/s. In data set [2], the “logKp (approximate, calculated)” value is listed as −6.51.
In the case of `C[C@@H]1C[C@H]2[C@@H]3CCC4=CC(=O)C=C[C@]4(C)[C@@]3(Cl)[C@@H](O)C[C@]2(C)[C@@]1(OC(=O)c1ccco1)C(=O)CCl` [MF, mometasone furoate, reference compound], in data set [1], the “permeation parameter CA(t)/CD(0)” value is 7.7 ± 1.5%; the “retention factor R (membrane retention)” value was found to be 81.0 ± 2.9%; the apparent permeability (Papp) at 7 h, 100 μM was 79.4 ×10⁻⁶ cm/s. Besides, in data set [1] (listed as mometasone furoate), the “permeation parameter CA(t)/CD(0)” value amounted to 7.7% and the “retention factor R (membrane retention)” value is reported as 81%. Also, the “permeate classification (groups I-III) from R versus CA(t)/CD(0)” value in data set [1] (relationship between retention factors and permeation parameters, Figure 2) is “group III (having high membrane retention and low permeation (group III))”. The “logKp (approximate, calculated)” value in data set [2] is −5.21.
For `CC1(C)O[C@@H]2C[C@H]3[C@@H]4CCC5=CC(=O)C=C[C@]5(C)[C@@]4(F)[C@@H](O)C[C@]3(C)[C@]2(C(=O)CO)O1` [TA, triamcinolone acetonide, reference compound], in data set [1], the “permeation parameter CA(t)/CD(0)” value is 10.8 ± 1.5%; the “retention factor R (membrane retention)” value is listed as 4.7 ± 2.3%; the apparent permeability coefficient (Papp) at 7 h, 100 μM is 9.77 ×10⁻⁶ cm/s. For the same molecule, the “logKp (approximate, calculated)” value in data set [2] is given as −6.43.
As for `CC(Oc1ccccc1)C(=O)OCC(=O)C12OC(C)(C)OC1CC1C3CCC4=CC(=O)C=CC4(C)C3(F)C(O)CC12C` (stereo not shown) [TA-21-PhP, triamcinolone acetonide 21-(2′-phenoxypropionate)], in data set [1], the “permeability coefficient log Pe” value is reported as −4.07 ± 0.14 cm/s, the “permeation parameter CA(t)/CD(0)” value came to 27.1 ± 1.4% and the “retention factor R (membrane retention)” value came out at 51.1 ± 3.8%.

Broadly, the Papp is a coefficient for how fast a substance crosses the barrier. Lower therefore signals slow passage.
